In US5798361A, “5H-thiazolo[3,2-a]pyrimidin-5-one derivatives” (Ferrer Internacional, S.A., priority 1995, dated 1998):
pIC50: −log10 of the molar value.

Legend:
D2 receptors = target: T1, D2 receptors (Rattus norvegicus, UniProt P61169); assay: Specific binding to D2 receptors ([3H]spiperone, rat striatum membrane); details: for pIC50: [3H]spiperone 2 nM, rat striatum membrane, 20 min, 35° C., pH 7.4; for D2/5HT2 ratio: ratio of IC50 values, D2 over 5HT2
T1 construct: membrane corresponding to 20 mg of rat striatum; from tissue; host or cells: rat striatum membrane
Procedure: (§1) Specific binding to D2 and 5HT2 receptors was tested as follows:
D2 receptors: A 2-nM solution of radioactive spiperone ([^3 H]spiperone), which acts as a specific ligand, was incubated with the membrane corresponding to 20 mg of rat striatum for 20 min at 35° C. buffered at pH 7.4 with Tris.HCl. The non-specific binding was then determined by addition of a micromolar concentration of unlabelled spiperone. […] After the incubation was completed, the sample was filtered through a glass fiber filter and then washed three times with Tris.HCl buffer. The amount of receptor-bound radioactivity was retained on the membrane and determined by liquid scintillation counting.

5HT2 receptors [1] = target: T2, 5HT2 receptors (Rattus norvegicus, UniProt P14842); assay: Specific binding to 5HT2 receptors ([3H]ketanserin, rat cortex membrane); details: [3H]ketanserin 0.5 nM, 30 min, 35° C., pH 7.4
T2 construct: membrane corresponding to 1 mg of rat cortex; from tissue; host or cells: rat cortex membrane
Procedure: as §1
5HT2 receptors: A 0.5 nM solution of radioactive ketanserin ([^3 H]ketanserin), which acts as a specific ligand, was incubated with the membrane corresponding to 1 mg of rat cortex for 30 min at 35° C. buffered at pH 7.4 with Tris.HCl. Non-specific binding was then determined by addition of 5 micromolar concentration of unlabelled mianserin. IC50 (inhibitory concentration 50%) was calculated from the inhibition rate of the specific binding obtained by addition of eleven different concentrations of the compounds to be tested. After the incubation was completed, the sample was filtered through a glass fiber filter and then washed three times with Tris.HCl buffer. The amount of receptor-bound radioactivity was retained on the membrane and determined by liquid scintillation counting.

[2] = system: apomorphine-induced climbing behaviour; assay: Inhibition of apomorphine-induced climbing behaviour; assay type: in vivo, Male Swiss mice; details: Mus musculus, 1 h; oral, mice, apomorphine 1 mg/kg s.c. at 60 min
Procedure: (§2) The inhibiton test of apomorphine-induced climbing behaviour and the inhibition test of DOI-induced head twitches and scratches are hereinafter described.
Inhibition of aoomorphine-induced climbing behaviour
Male Swiss mice weighing 22-24 g were used. One week prior to experiment, animals were kept in our facilities at a temperature of 20°-22° C. and 12/12 h light-dark cycle, and had free access to food and water. Two hours prior to experiment, the animals were placed in individual cages without access to food.
Animals were administered orally with test drug or 0.25% agar at time 0. After 60 minutes, apomorphine was subcutaneously injected at a dose of 1 mg/kg, and after further 70 minutes the animal's behaviour was assessed. Two additional assessments were performed at 10-min intervals. For assessment, each animal was placed on the bottom of a small upright box (11×7.5×4.5 cm). The walls of the box were made of translucent methacrylate except one of the lateral surfaces (7.5 cm wide) which was a 3-mm wire mesh. The position of the animal was scored for 2 minutes according to the following criteria: 0=four paws on the floor; 1=three paws on the floor; 2=two paws on the floor; 3=one paw on the floor; and 4=four paws holding the wire mesh. If an animal keeps several positions within the 2-min observation, the seconds elapsed in each position will be recorded. Finally, mean scoring was calculated.

5HT2 receptors [3] = target: T3, 5HT2 receptors (Mus musculus, UniProt P35363); assay: Inhibition of DOI-induced head twitches and scratches; assay type: in vivo, Male N.M.R.I. mice; details: p.o., mice, DOI 3 mg/kg i.p. at 60 min
T3 construct: Male N.M.R.I. mice weighing 22-26 g were used; from tissue; host or cells: living male N.M.R.I. mice (whole animal, endogenous receptor)
Procedure: as §2
Inhibition of DOI-induced head twitches and scratches
Male N.M.R.I. mice weighing 22-26 g were used. After the animals were weighed, they were individually placed in transparent cages two hours prior to experiment. Test compound was given p.o. at time 0. The administration interval time between mice was 5 min. At time 60 min DOI at the dose of 3 mg/kg i.p. dissolved in saline was administered. The number of head twitches and scratches were assessed as well as the presence or absence of escape attempts.

[4] = Catalepsy by oral route in Sprague-Dawley rats; assay type: in vivo; details: for ED50: rat, in vivo, oral, Sprague-Dawley rats, 50% of treated animals showed catalepsy; for R (Catalepsy/Climbing): ratio of ED50 values

T2 sequence (P14842 whole entry): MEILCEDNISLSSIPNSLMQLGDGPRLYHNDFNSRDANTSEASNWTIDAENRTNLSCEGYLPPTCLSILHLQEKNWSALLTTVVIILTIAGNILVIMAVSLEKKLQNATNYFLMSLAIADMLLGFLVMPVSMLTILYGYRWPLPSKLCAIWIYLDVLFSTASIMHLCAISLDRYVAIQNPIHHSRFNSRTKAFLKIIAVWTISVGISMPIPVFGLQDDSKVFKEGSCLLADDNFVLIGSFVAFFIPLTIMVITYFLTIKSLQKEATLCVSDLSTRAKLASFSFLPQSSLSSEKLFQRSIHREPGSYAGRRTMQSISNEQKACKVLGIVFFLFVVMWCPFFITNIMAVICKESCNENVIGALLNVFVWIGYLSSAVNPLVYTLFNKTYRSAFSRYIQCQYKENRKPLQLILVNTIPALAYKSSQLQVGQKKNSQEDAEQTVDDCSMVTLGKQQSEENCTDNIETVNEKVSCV
T3 sequence (P35363 whole entry): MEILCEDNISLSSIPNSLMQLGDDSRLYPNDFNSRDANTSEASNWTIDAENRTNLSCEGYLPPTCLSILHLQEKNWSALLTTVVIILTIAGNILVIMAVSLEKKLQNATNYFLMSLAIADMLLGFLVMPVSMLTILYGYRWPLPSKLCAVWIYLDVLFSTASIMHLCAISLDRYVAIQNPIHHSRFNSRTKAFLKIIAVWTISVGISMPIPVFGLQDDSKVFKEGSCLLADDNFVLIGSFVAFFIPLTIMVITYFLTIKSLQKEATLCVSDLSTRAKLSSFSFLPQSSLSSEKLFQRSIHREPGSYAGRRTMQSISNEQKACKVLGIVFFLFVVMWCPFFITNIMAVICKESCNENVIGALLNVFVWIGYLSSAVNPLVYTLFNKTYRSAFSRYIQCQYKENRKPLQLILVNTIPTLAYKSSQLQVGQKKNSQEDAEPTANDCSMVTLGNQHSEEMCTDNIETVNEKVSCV
T1 sequence (P61169 whole entry): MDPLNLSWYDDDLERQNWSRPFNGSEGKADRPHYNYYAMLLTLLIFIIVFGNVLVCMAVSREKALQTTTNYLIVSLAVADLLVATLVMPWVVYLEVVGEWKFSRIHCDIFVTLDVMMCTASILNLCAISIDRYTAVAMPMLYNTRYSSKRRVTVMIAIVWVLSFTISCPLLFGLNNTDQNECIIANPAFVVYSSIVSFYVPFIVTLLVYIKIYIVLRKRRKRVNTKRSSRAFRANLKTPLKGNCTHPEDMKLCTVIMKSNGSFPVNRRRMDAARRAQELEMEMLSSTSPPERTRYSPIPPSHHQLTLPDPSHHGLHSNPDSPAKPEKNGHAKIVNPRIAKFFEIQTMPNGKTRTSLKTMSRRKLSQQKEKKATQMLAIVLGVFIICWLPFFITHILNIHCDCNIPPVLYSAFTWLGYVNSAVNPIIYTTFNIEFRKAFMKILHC

Row | SMILES | pIC50 (D2 receptors) | D2/5HT2 ratio (D2 receptors) | pIC50 (5HT2 receptors [1]) | ED50 [2] [mg/kg] | ED50 DOI (5HT2 receptors [3]) [mg/kg] | ED50 [4] [mg/kg] | R (Catalepsy/Climbing) [4]
1 | Cc1nc2scc(-c3ccc(F)cc3)n2c(=O)c1CCN1CCC(c2noc3cc(F)ccc23)CC1 [Example 14, 6-[2-[4-(6-fluoro-1,2-benzisoxazol-3-yl)-1-piperidinyl]ethyl]-3-(4-fluorophenyl)-7-methyl-5H-thiazolo[3,2-a]pyrimidin-5-one] | 7.71 | 6.2 | 8.50 | 2.9 | 0.28 | 9.3 | 3.2
2 | Cc1nc2scc(-c3ccccc3)n2c(=O)c1CCN1CCC(c2noc3cc(F)ccc23)CC1 [Example 15, 6-[2-[4-(6-fluoro-1,2-benzisoxazol-3-yl)-1-piperidinyl]ethyl]-3-phenyl-7-methyl-5H-thiazolo[3,2-a]pyrimidin-5-one] | 7.36 | 11.2 | 8.40 | 14.7 | 0.58 | 16 | 1.1
3 | COc1ccc(-c2csc3nc(C)c(CCN4CCC(c5noc6cc(F)ccc56)CC4)c(=O)n23)cc1 [Example 16, 6-[2-[4-(6-fluoro-1,2-benzisoxazol-3-yl)-1-piperidinyl]ethyl]-3-(4-methoxyphenyl)-7-methyl-5H-thiazolo[3,2-a]pyrimidin-5-one] | 7.38 | 5.1 | 8.08 | 7.4 | 0.84 | 30 | 4.1
4 | Cc1ccc(-c2csc3nc(C)c(CCN4CCC(c5noc6cc(F)ccc56)CC4)c(=O)n23)cc1 [Example 17, 6-[2-[4-(6-fluoro-1,2-benzisoxazol-3-yl)-1-piperidinyl]ethyl]-3-(4-methylphenyl)-7-methyl-5H-thiazolo[3,2-a]pyrimidin-5-one] | 7.44 | 2.4 | 7.83 | 3.9 | 0.57 | 22.5 | 5.8
5 | Cc1nc2scc(-c3ccc4c(c3)OCO4)n2c(=O)c1CCN1CCC(c2noc3cc(F)ccc23)CC1 [Example 18] | 7.76 | 2.3 | 8.12 | 7.7 | 0.80 | 20 | 2.6
6 | Cc1nc2scc(-c3ccc(Cl)cc3)n2c(=O)c1CCN1CCC(c2noc3cc(F)ccc23)CC1 [Example 19] | 7.36 | 3.9 | 7.95 | 3.5 | 0.82 | 9.5 | 2.7
7 | Cc1nc2scc(-c3ccc(Cl)c(Cl)c3)n2c(=O)c1CCN1CCC(c2noc3cc(F)ccc23)CC1 [Example 20] | 7.71 | 0.6 | 7.45 | – | – | – | –
8 | Cc1nc2scc(-c3cccc(Cl)c3)n2c(=O)c1CCN1CCC(c2noc3cc(F)ccc23)CC1 [Example 21] | 7.78 | 0.7 | 7.61 | – | – | – | –
9 | COc1cccc(-c2csc3nc(C)c(CCN4CCC(c5noc6cc(F)ccc56)CC4)c(=O)n23)c1 [Example 22] | 7.55 | 3.8 | 8.13 | 19 | 1.10 | 40 | 2.1
10 | Cc1cccc(-c2csc3nc(C)c(CCN4CCC(c5noc6cc(F)ccc56)CC4)c(=O)n23)c1 [Example 23] | 7.65 | 0.7 | 7.49 | – | – | – | –
11 | Cc1nc2scc(-c3ccccc3Cl)n2c(=O)c1CCN1CCC(c2noc3cc(F)ccc23)CC1 [Example 24] | 7.53 | 1.0 | 7.53 | > 50 | 1.50 | > 50 | –
12 | Cc1nc2scc(-c3cccc(C(F)(F)F)c3)n2c(=O)c1CCN1CCC(c2noc3cc(F)ccc23)CC1 [Example 25] | 7.68 | 0.3 | 7.08 | – | – | – | –
13 | Cc1nc2scc(-c3ccccc3F)n2c(=O)c1CCN1CCC(c2noc3cc(F)ccc23)CC1 [Example 26] | 7.09 | 23.4 | 8.45 | > 50 | 0.42 | > 50 | –
14 | Cc1nc2scc(-c3ccccc3)n2c(=O)c1CCN1CCC(C(=O)c2ccc(F)cc2)CC1 [Example 27] | 6.76 | 13.9 | 7.90 | > 50 | 1.20 | > 50 | –
15 | COc1ccc(-c2csc3nc(C)c(CCN4CCC(C(=O)c5ccc(F)cc5)CC4)c(=O)n23)cc1 [Example 28] | 7.10 | 9.7 | 8.08 | 24.6 | 0.60 | > 50 | > 2.0
16 | O=C(CCCN1CCC(O)(c2ccc(Cl)cc2)CC1)c1ccc(F)cc1 [Haloperidol, reference compound] | – | – | – | 1.2 | – | 1.95 | –
